# Results published in patent publication US11585819B2, “Bistrifilate-based fluorogenic probes for detection of superoxide anion radical” (THE UNIVERSITY OF HONG KONG, priority 2014, dated 2023).
# Where two headings read alike, the source gives them in different places.
# Key:
# [1] = system: HCT116 (human colon cancer cells), RAW264.7 (mouse macrophages), BV-2 (mouse microglia); test: Confocal imaging with HKSOX-1r of O2^•− induced by mitochondrial respiratory inhibitors; assay type: cell-based
# Protocol: To validate the inhibitor effects, three different types of cell were used: HCT116 (human colon cancer cells), RAW264.7 (mouse macrophages), and BV-2 (mouse microglia).
# (§1) In each group, upper: fluorescence images; lower: fluorescence images merged with bright field images.
# (left) Untreated cells incubated with probe alone for 30 min. (right) Cells co-incubated with probe and antimycin A (5 μM) for 30 min. Upper: fluorescence images; lower: fluorescence images merged with bright field images.
# [2] = system: Hela (human cervical epithelial cancer cells), BV-2 (mouse microglia), RAW264.7 (mouse macrophages); test: Confocal imaging with HKSOX-2 of O2^•− induced by mitochondrial respiratory inhibitors; assay type: cell-based; design: probe fluorescence response upon induction of mitochondrial O2^•−: dose or concentration left out as unconfirmed
# Protocol: We also tested HKSOX-2 (5 μM) in detection of O2^•− induced by mitochondrial respiratory inhibitors (30 min treatment): antimycin A (complex III inhibitor; 10 μM), rotenone (complex I inhibitor; 10 μM) and FCCP ([…]; 10 μM). To validate the inhibitor effects, three different types of cell were used: Hela (human cervical epithelial cancer cells), BV-2 (mouse microglia), and RAW264.7 (mouse macrophages).
# as §1
# [3] = system: RAW264.7 mouse macrophages; test: Confocal imaging of endogenous O2^•− with HKSOX-1r in LPS/IFN-γ activated macrophages; assay type: cell-based
# Protocol: We assessed the application of HKSOX-1r in confocal imaging of O2^•− in different types of cell. For detection of endogenous O2^•−, we used mouse macrophages (RAW264.7 cells) as a cellular model. Bacterial lipopolysaccharide (LPS from Salmonella typhimurium; 500 ng/mL) and the proinflammatory cytokine interferon-γ (IFN-γ from mouse; 50 ng/mL) were used to activate macrophages. […] Additionally, the O2^•− decomposition catalyst FeTMPyP (50 μM) and chemical scavenger TEMPOL (4-hydroxy-TEMPO; 300 μM) were used to remove O2^•− in activated macrophages.
# The cells were co-stained with mitochondrial dye MitoTracker Red (50 nM) and nuclear DNA dye Hoechst 33342 (150 ng/mL) for 30 min. Merged: all fluorescence images merged. (a) Untreated cells; (b) cells stimulated with LPS (500 ng/mL) and IFN-γ (50 ng/mL) for 14 h, followed by HKSOX-1r staining for 30 min; (c) cells co-treated with LPS/IFN-γ and gp91ds-tat (2 μM) for 14 h, followed by HKSOX-1r staining (30 min); (d) cells stimulated with LPS/IFN-γ for 14 h, followed by co-incubation of HKSOX-1r and FeTMPyP (50 μM) for 30 min; (e) cells stimulated with LPS/IFN-γ for 14 h, followed by co-incubation of HKSOX-1r and TEMPOL (300 μM) for 30 min.
# [4] = system: mouse microglia (BV-2 cells); test: Confocal imaging of endogenous O2^•− with HKSOX-2m in PMA-activated microglia; assay type: cell-based; settings: 30 min; for effect on HKSOX-2m fluorescence in PMA-stimulated microglia: Mdivi-1 100 μM, Gö6983 100 nM
# Protocol: (§2) We assessed the application of HKSOX-2m (2 μM) in confocal imaging of O2^•− in different types of cell. For detection of endogenous O2^•−, two different cell types were used: mouse macrophages (RAW264.7 cells) and mouse microglia (BV-2 cells). PMA (phorbol-12-myristate-13-acetate), a PKC activator and acute O2^•− inducer, was used to activate macrophages. The chemical scavenger TEMPOL (4-hydroxy-TEMPO; 300 μM) was used to remove O2^•− in activated macrophages. Mdivi-1 (100 μM), a Drp-1 (dynamin-related protein 1) inhibitor that inhibits mitochondrial fission and subsequent mitochondrial O2^•− production, was used to block mitochondrial O2^•− formation. Additionally, Gö6983 (100 nM), a PKC inhibitor, was used to abolish PMA-mediated effects in O2^•− induction.
# [5] = system: mouse macrophages (RAW264.7 cells); test: Confocal imaging of endogenous O2^•− with HKSOX-2m in PMA-activated macrophages; assay type: cell-based; settings: 30 min; for effect on HKSOX-2m fluorescence in PMA-stimulated macrophages: Mdivi-1 100 μM, Gö6983 100 nM
# Protocol: as §2
# [6] = Fluorescence response of probe to O2^•− generated by xanthine/xanthine oxidase and to other oxidants, reductants, esterase and GSH in phosphate buffer; settings: 1 μM probe
# Protocol: The stock solution of HKSOX-1 (10 mM) is diluted in 0.1 M potassium phosphate buffer at pH 7.4 to obtain a 10 μM solution, with excitation and emission spectra at 509 nm and 534 nm, respectively. As expected, the probe HKSOX-1 was non-fluorescent (FIG. 1).
# The stock solution of HKSOX-2 (1 mM) is diluted in 0.1 M potassium phosphate buffer at pH 7.4 to obtain a 1 μM solution, with excitation and emission spectra at 535 nm and 562 nm, respectively.
# [7] = system: BV-2 mouse microglial cells; test: Confocal imaging comparison of HKSOX-2m and MitoSOX Red with multiple superoxide inducers, co-staining with MitoTracker Green and Hoechst; assay type: cell-based; settings: for fluorescence with various stimulants: 40 min; for fluorescence turn-on response: Ex 543 nm
# Protocol: To further validate the performance of HKSOX-2m as a mitochondria-targeting superoxide probe, we conducted confocal imaging of HKSOX-2m with multiple superoxide inducers in BV-2 mouse microglial cells (FIG. 11), and compared HKSOX-2m's performance with that of MitoSOX Red™ (a widely used commercial fluorescent probe for mitochondrial superoxide detection; Invitrogen), by using the same drugs as stimulants (FIG. 12). Briefly, BV-2 cells were co-incubated for 40 min with probes (HKSOX-2m or MitoSOX Red™) and general superoxide inducers (PMA and zymosan, which elicit superoxide production from multiple superoxide sources including mitochondria) or specific mitochondrial superoxide inducers (diethyl succinate, diethyl malonate, and rotenone, which target the mitochondrial respiratory chain complexes). […] Slight spatial shifts in fluorescence signal were occasionally observed in the HKSOX-2m and MitoTracker Green channels, which could be accounted for by mitochondrial dynamics and time lag in confocal laser scanning for each channel. […] In fact, fluorescence distribution of the mitochondrial dye MitoTracker Green (Ex 488; Em 505 nm long-pass) was grossly distorted in the presence of MitoSOX Red™ (due to its broad tailing in emission spectrum), resulting in a loss of mitochondrial morphology.
# [8] = system: BV-2 mouse microglial cells; settings: MitoSOX Red 5 μM (maximal dose according to manufacturer's protocol), extended incubation; cited from earlier work
# [9] = TEMPOL 300 μM, readout HKSOX-2m 2 μM
# [10] = 30 min, antimycin A, rotenone, FCCP 5 μM, malonic acid 500 μM, readout HKSOX-1r 2 μM
# [11] = 30 min, antimycin A, rotenone, FCCP 10 μM, readout HKSOX-2
compound,measurement,setting,value
N#CC(C#N)=NNc1ccc(OC(F)(F)F)cc1 [FCCP],degree of efficacy in inducing mitochondrial O2^•− production (rank order),[1],antimycin A>FCCP>>rotenone>>malonic acid
same,degree of efficacy in inducing mitochondrial O2^•− production (rank order),[2],antimycin A>FCCP>>rotenone
"CC1(C)CC(O)CC(C)(C)N1[O] [TEMPOL, 4-hydroxy-TEMPO]",effect on HKSOX-1r fluorescence in LPS/IFN-γ activated macrophages,[3]; FeTMPyP 50 μM or TEMPOL 300 μM co-incubated with HKSOX-1r for 30 min,substantially attenuated
same,effect on the PMA-induced surge in O2^•− production,[4]; [9],greatly suppressed
same,effect on the PMA-induced surge in O2^•− production,[5]; [9],greatly suppressed
C=C(C)[C@H]1Cc2c(ccc3c2O[C@@H]2COc4cc(OC)c(OC)cc4[C@@H]2C3=O)O1 [rotenone],degree of efficacy in inducing mitochondrial O2^•− production (rank order),[1]; [10],antimycin A>FCCP>>rotenone>>malonic acid
same,degree of efficacy in inducing mitochondrial O2^•− production (rank order),[2]; [11],antimycin A>FCCP>>rotenone
COc1ccc2c(c1)c(C1=C(c3c[nH]c4ccccc34)C(=O)NC1=O)cn2CCCN(C)C [Gö6983],effect on HKSOX-2m fluorescence in PMA-stimulated microglia,[4],reduced to near basal level
same,effect on HKSOX-2m fluorescence in PMA-stimulated macrophages,[5],reduced to near basal level
CCOC(=O)CCCN1c2cc3c(cc2C(C)CC1(C)C)C1(OC(=O)c2ccccc21)c1cc(F)c(OS(=O)(=O)C(F)(F)F)c(F)c1O3 (stereo not drawn) [HKSOX-2],probe fluorescence response upon induction of mitochondrial O2^•−,[2]; 30 min,strong fluorescence response
same,enhancement in fluorescence intensity upon O2^•−,"[6]; 10 equiv of O2^•− generated by X/XO system, 15 min, pH 7.4",> 23 fold
same,"increase in fluorescence signals by other oxidants, reductants, esterase and GSH","[6]; 10 equiv of H2O2, NO, 1O2, ROO•, TBHP, •OH, ONOO−, HOCl, Fe2+, ascorbic acid, 1,4-hydroquinone, esterase 10 U/mL, GSH 5 mM",negligible increase
COC(=O)CN(CC(=O)OC)C(=O)c1ccc2c(c1)C(=O)OC21c2cc(F)c(OS(=O)(=O)C(F)(F)F)c(F)c2Oc2c1cc(F)c(OS(=O)(=O)C(F)(F)F)c2F [HKSOX-1r],probe fluorescence response upon induction of mitochondrial O2^•−,"[1]; HKSOX-1r at 2 μM, 30 min",strong fluorescence response
same,probe fluorescence in stimulated macrophages relative to untreated ones,"[3]; HKSOX-1r 2 μM, 30 min staining, LPS 500 ng/mL and IFN-γ 50 ng/mL for 14 h",much stronger fluorescence signals
antimycin A,degree of efficacy in inducing mitochondrial O2^•− production (rank order),[1]; [10],antimycin A>FCCP>>rotenone>>malonic acid
same,degree of efficacy in inducing mitochondrial O2^•− production (rank order),[2]; [11],antimycin A>FCCP>>rotenone
O=C(O)CC(=O)O [malonic acid],degree of efficacy in inducing mitochondrial O2^•− production (rank order),[1]; [10],antimycin A>FCCP>>rotenone>>malonic acid
COc1cc(-n2c(=S)[nH]c3ccccc3c2=O)c(Cl)cc1Cl [Mdivi-1],effect on HKSOX-2m fluorescence in PMA-stimulated microglia,[4],reduced to near basal level
same,effect on HKSOX-2m fluorescence in PMA-stimulated macrophages,[5],reduced to near basal level
CC1CC(C)(C)N(CCCC(=O)N2CCN(C(=O)CCCC[P+](c3ccccc3)(c3ccccc3)c3ccccc3)CC2)c2cc3c(cc21)C1(OC(=O)c2ccccc21)c1cc(F)c(OS(=O)(=O)C(F)(F)F)c(F)c1O3 (stereo not drawn) [HKSOX-2m],probe fluorescence in PMA-stimulated microglia relative to untreated ones,"[4]; HKSOX-2m 2 μM, PMA 200 ng/mL",much stronger fluorescence signals
same,probe fluorescence in PMA-stimulated macrophages relative to untreated ones,"[5]; HKSOX-2m 2 μM, PMA 200 ng/mL",much stronger fluorescence signals
same,fluorescence with various stimulants,"[7]; HKSOX-2m 2 μM, PMA, zymosan, diethyl succinate, diethyl malonate, rotenone",moderate to strong fluorescence
same,fluorescence turn-on response,"[7]; HKSOX-2m working dose 2 μM, Em 559-623 nm band-pass",highly efficient
Nc1ccc2c(c1)C(c1ccccc1)N(CCCCCC[P+](c1ccccc1)(c1ccccc1)c1ccccc1)c1cc(N)ccc1-2.[I-] (stereo not drawn) [MitoSOX Red™],toxicity of the working dose,[7]; MitoSOX Red 4 μM,near-toxic
same,fluorescence with various stimulants,"[7]; MitoSOX Red 4 μM, same stimulants",low to moderate fluorescence
same,fluorescence turn-on response,[7]; MitoSOX Red working dose 4 μM,rather sluggish
same,toxicity of the maximal dose,[8],cytotoxic
